Assay results from patent publication US11078175B2, “Substituted dihydrobenzofuran compounds and their use as synergists” (ENDURA S.P.A., priority 2015, dated 2021).

How the values were obtained:
[1] = target: T1, FE4 Myzus persicae esterases (Myzus persicae, UniProt P35502); experiment: Inhibition of esterase enzymes, 4-nitrophenyl acetate substrate with purified FE4; type: biochemical; conditions: 2.5 μL of 10 mM compound in acetone added to 50 μL, 10 min incubation, substrate 4-nitrophenyl acetate 0.8 mM final, acetone-only control
T1 construct: would be utilised for the purified esterases from aphids; from tissue; host or cells: aphids (Myzus persicae)
T1 sequence (P35502 24-564): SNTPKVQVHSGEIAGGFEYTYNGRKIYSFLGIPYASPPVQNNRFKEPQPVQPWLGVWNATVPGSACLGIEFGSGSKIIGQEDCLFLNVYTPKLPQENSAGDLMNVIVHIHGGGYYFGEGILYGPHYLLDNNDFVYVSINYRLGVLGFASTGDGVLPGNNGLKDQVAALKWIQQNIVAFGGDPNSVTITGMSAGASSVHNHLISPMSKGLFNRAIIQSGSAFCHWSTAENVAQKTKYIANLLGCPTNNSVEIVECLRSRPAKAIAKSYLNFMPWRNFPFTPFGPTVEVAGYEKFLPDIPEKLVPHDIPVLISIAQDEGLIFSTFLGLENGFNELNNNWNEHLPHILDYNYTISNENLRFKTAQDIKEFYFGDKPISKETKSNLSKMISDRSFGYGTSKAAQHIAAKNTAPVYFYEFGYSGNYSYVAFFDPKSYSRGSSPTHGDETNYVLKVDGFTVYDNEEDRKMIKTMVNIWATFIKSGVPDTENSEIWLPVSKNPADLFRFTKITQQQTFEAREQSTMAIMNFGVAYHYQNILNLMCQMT
Description: It was envisaged, therefore, that the ‘esterase intereference assay’ (Khot et al., 2008) would be utilised for the purified esterases from aphids. Various esterase substrates were assessed to find one suitable of monitoring inhibition in an insect homogenate. The Myzus persicae resistance associated esterase, FE4, was used.
From the literature (Philippou et al., 2013) it is known that 1-naphthyl acetate is not suitable for this assay. Instead, 4-nitrophenyl acetate was used. A 10 mM pNA stock was prepared in acetone and added to 0.02 M phosphate buffer pH 7.0 (final concentration 2 mM). The comparison was made with 6 PBO analogues of variable efficacy.
For the assay 10 μL of purified FE4 was diluted to a total volume of 50 μL by the addition of 0.02 M phosphate buffer, pH 7.0 in individual wells of a microplate (maxisorb, NUNC). To each well, 2.5 μL of 10 mM of the compound of Example 1 and of Example 2 in acetone was added and incubated for 10 mins, with acetone only used as a control. Following incubation, 100 μL of 0.02 M phosphate buffer, pH 7.0 and 100 μL of 2 mM 4-nitrophenyl acetate was added (final volume in well 250 μL, final substrate concentration 0.8 mM). Enzyme activity was read at 405 nm in a Spectramax Tmax for 5 min, with readings taken every 5 secs. The rate (mOD min^−1) was calculated by the integrated software, Softmax Pro v.5.4.

Bemisia tabaci CYP6CM1 = conditions: recombinant CYP6CM1; 3 μL of 10 mM compound stock in acetone added to 50 μL enzyme; 10 min incubation at room temperature; substrate 7-ethoxycoumarin; acetone-only control
Description: Ability of the compounds of the invention to inhibit oxidative enzymes (P450), a major mechanism conferring resistance to xenobiotics, was measured using recombinant enzymes corresponding to CYPCM1 from Bemisia tabaci.
Diluted recombinant enzyme (50 μL) was mixed with 3 μL of a.m compounds stock solutions, with acetone only used as a control. After 10 min incubation at room temperature, 80 μL of 0.125 mM 7-ethoxycoumarin was added, followed by 10 μL 9.6 mM NADPH (nicotinamide adenine dinucleotide phosphate) in 0.1 M sodium phosphate, pH 7.8, and 0-deethylation activity monitored as above. A PBO solution (10 mM) was prepared in the same way as a comparison.

Structure (SMILES)	remaining activity at 10000 µM (stock) [1]	% activity remaining (Bemisia tabaci CYP6CM1)
CCCCOCCOCCOCc1cc(CCC)cc2c1OCC2 [Compound of Example 1, 5-propyl-7-[[2-(2-Butoxyethoxy)ethoxy]methyl]-2,3-dihydrobenzo furan]	33.2%	38.47%
CCCCCCc1cc2c(c(COCCOCCOCCCC)c1)OCC2 [Compound of Example 2, 5-n-hexyl-7-[[2-(2-Butoxyethoxy)ethoxy]methyl]-2,3-dihydrobenzo furan]	40.6%	86.22%
